The results in this text go back to patent EP4450494A1, “INDOLE DERIVATIVES AS HISTONE DEACETYLASE (HDAC) INHIBITORS FOR THE TREATMENT OF CANCER” (Consejo Superior De Investigaciones Científicas, priority 2023, dated 2024).

Broadly, the IC50 is the concentration at which inhibition is half-maximal.

What all share (assay type): cell-based
Assay [1] deals with U87 glioblastoma cell line. Briefly: MTT cell viability dose-response assay in U87. To be noted: MTT assay after 72 h of treatment. The protocol: (§1) As a first screening, dose-response assays were done in U87 glioblastoma cell line in order to obtain the IC50 values of the different compounds. Cells were seeded at a density of 1.500 cells/well in 96-well plates, incubated overnight and treated with increasing concentrations of the corresponding compounds. After 72 h of treatment, cell viability was determined by MTT assay. For this, MTT was added to the wells and cells were incubated for 3,5 h at 37 °C and 5% CO2. Then, media was removed and DMSO was added to resuspend the formed crystals. Absorbance at 570 nm was measured using a spectrophotometer, and GraphPad Prism software was used to analyze the results and calculate the IC50 values.
Background: Tetrazolium assays rely on reduction of a dye to a coloured formazan, in cell work by metabolically active cells.

Another assay concerns U251. Nature of the assay: MTT cell viability assay in U251. Particulars: Homo sapiens, U-251, MTT assay after 72 h of treatment. The protocol:
as §1
(§2) With this aim, additional MTT assays were carried out following the same protocol in other glioblastoma conventional (U251) and patient-derived (GNS179) cell lines. […]

For the next assay, the system named is GNS179. Nature of the assay: MTT cell viability assay in GNS179. To be noted: GNS179 (patient-derived); MTT assay after 72 h of treatment. As for the experimental part: as §1, §2
In the next assay the target is T1, HDAC6 (Homo sapiens, UniProt Q9UBN7).
T1 construct: endogenous in cells; host or cells: U87 glioblastoma cell line
T1 sequence (Q9UBN7 1-1215): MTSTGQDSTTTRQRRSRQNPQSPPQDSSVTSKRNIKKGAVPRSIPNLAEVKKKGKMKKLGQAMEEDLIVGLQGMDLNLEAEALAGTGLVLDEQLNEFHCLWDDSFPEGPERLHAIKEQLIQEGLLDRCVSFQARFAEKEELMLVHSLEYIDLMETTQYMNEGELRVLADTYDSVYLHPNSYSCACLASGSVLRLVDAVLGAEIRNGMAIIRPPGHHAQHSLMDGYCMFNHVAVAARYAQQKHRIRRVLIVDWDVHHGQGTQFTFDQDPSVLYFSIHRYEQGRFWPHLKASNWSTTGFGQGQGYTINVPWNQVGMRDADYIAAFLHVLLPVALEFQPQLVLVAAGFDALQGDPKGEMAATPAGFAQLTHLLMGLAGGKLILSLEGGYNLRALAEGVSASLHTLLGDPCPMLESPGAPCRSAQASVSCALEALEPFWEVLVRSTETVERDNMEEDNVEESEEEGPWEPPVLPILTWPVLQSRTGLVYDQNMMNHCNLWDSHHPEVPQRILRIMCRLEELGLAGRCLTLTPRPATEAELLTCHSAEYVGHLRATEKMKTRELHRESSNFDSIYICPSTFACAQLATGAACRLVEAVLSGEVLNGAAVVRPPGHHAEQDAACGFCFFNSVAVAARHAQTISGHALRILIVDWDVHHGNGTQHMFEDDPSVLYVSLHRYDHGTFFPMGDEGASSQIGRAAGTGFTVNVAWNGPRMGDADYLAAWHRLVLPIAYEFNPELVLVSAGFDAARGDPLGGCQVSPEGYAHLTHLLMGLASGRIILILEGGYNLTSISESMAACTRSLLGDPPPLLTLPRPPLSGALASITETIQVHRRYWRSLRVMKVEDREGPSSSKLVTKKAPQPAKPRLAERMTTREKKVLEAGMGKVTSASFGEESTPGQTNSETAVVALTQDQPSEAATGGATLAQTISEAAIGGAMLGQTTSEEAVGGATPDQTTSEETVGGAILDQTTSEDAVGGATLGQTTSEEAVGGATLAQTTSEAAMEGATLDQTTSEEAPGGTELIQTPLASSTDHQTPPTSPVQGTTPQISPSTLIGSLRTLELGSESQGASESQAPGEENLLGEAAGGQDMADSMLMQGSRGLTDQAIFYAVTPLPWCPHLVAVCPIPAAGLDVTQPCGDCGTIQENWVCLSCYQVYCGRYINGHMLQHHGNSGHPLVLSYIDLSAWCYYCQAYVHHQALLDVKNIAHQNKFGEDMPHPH
Briefly: Western blot of HDAC6 and acetylated α-tubulin in treated U87 cells. Particulars: 48 h, effect higher with increasing concentrations. The protocol: Basing on the IC50 values, DDI199, MTP142, MTP156, MTP150, FRB44 and FRB56 were selected for further studies, as they seem to be the most promising compounds (see figure 1). Thus, the capacity of these compounds as HDAC inhibitors was tested. […] For this, specific antibodies against HDAC6 and HDAC1, and acetylated α-tubulin and acetylated histone H3 were used, and β-actin was included as control. Secondary antibodies were horseradish peroxidase (HRP)-linked anti-rabbit and anti-mouse and detection was performed by chemiluminiscence with NOVEX ECL Chemi Substrate.
Background: A western blot detects proteins with antibodies after separation by electrophoresis.

For assay [2], the system named is conventional (U251) and patient-derived (GNS166 and GNS179) cell lines. Nature of the assay: Immunofluorescence for phosphohistone H3 (proliferation) in additional glioblastoma cell lines. To be noted: dose-dependent. As for the experimental part:
(§3) For this, U87 cells were incubated for 48 h with increasing concentrations of the compounds. After that, cells were incubated with phosphohistone H3 or caspase-3 antibodies for the study of proliferation or apoptosis, respectively. Alexa Fluor 555 IgG anti-mouse and anti-rabbit secondary antibodies were used, and nuclear DNA was stained with DAPI. Pictures were taken with an Eclipse 80i microscope.
(§4) Furthermore, immunofluorescence assays for DDI199 were completed in additional conventional (U251) and patient-derived (GNS166 and GNS179) cell lines.

For assay [3] the test system is unchanged. Briefly: Immunofluorescence for caspase-3 (apoptosis) in additional glioblastoma cell lines. To be noted: dose-dependent. The protocol: as §3, §4

For the compound `C#CCN(Cc1cc2cc(OCCCN3CCCCC3)ccc2n1S(=O)(=O)c1ccccc1)C(=O)CCCCCCC(=O)NO` [DDI199, N1-Hydroxy-N8-((1-(phenylsulfonyl)-5-(3-(piperidin-1-yl)propoxy)-1H-indol-2-yl)methyl)-N8-(prop-2-yn-1-yl)octanediamide], the results for the half-maximal inhibitory concentration (IC50) (in assay [1]; in the assay with U251; in the assay with GNS179) were 3.23 µM, 5.45 µM and 4.33 µM, respectively. The HDAC6 inhibitory capacity result at HDAC6 is reported as “high HDAC6 inhibitory capacity”. In addition, the “cell proliferation (PH3 positive cells)” value in assay [2] is recorded as “significantly reduces cell proliferation”. For the same compound, the “apoptosis (caspase-3 positive cells)” value in assay [3] is on record as “induces apoptosis”.

Take `COc1ccc2c(ccn2S(=O)(=O)c2cccc(/C=C/C(=O)NO)c2)c1` [MTP142, (E)-N-Hydroxy-3-(3-((5-methoxy-1H-indol-1-yl)sulfonyl)phenyl)acrylamide]: the HDAC6 inhibitory capacity entry on HDAC6 is given as “inhibits HDAC6, although this effect is much slighter than that for DDI199”.
